For the series the following is noted: 101.33 kPa, Liquid; for viscosity: Falling or rolling sphere viscometry; for mass density: Vibrating tube method.

Numbers after ± are expanded uncertainties.

By viscosity is commonly meant the resistance of a fluid to flow. The term mass density denotes mass per unit of volume.

For `CCCCn1cc[n+](C)c1.N#CN=C=[N-]` [1-butyl-3-methylimidazolium dicyanamide], the viscosity turned out to be 48.53 ± 2.1 mPa·s (293.15 K); 31.73 ± 1.4 mPa·s (303.15 K); 22.09 ± 0.96 mPa·s (313.15 K); 16.17 ± 0.7 mPa·s (323.15 K); 12.35 ± 0.54 mPa·s (333.15 K). The mass density (293.15 K) is recorded as 1065.4 ± 2.2 kg/m3; the mass density (303.15 K) is listed as 1059.09 ± 2.1 kg/m3; the mass density (313.15 K) turned out to be 1052.83 ± 2.1 kg/m3; the mass density (323.15 K) turned out to be 1046.62 ± 2.1 kg/m3; the mass density (333.15 K) was 1040.48 ± 2 kg/m3.

Take `NCCO` [2-aminoethan-1-ol]: the viscosity runs as follows: (293.15 K) 23.76 ± 0.98 mPa·s; (303.15 K) 14.85 ± 0.61 mPa·s; (313.15 K) 9.943 ± 0.41 mPa·s; (323.15 K) 6.984 ± 0.29 mPa·s; (333.15 K) 5.108 ± 0.21 mPa·s. Also, the mass density by setting is: (293.15 K) 1015.96 ± 0.3 kg/m3; (303.15 K) 1008.05 ± 0.29 kg/m3; (313.15 K) 1000.09 ± 0.29 kg/m3; (323.15 K) 992.07 ± 0.29 kg/m3; (333.15 K) 983.98 ± 0.29 kg/m3.

Consider `Cn1cc[n+](CCO)c1.N#C[N-]C#N` [3-(2-hydroxyethyl)-1-methyl-1H-imidazol-3-ium dicyanoazanide], for which the viscosity was 121.5 ± 6.2 mPa·s (293.15 K); 68.67 ± 3 mPa·s (303.15 K); 42.93 ± 1.9 mPa·s (313.15 K); 28.96 ± 1.3 mPa·s (323.15 K); 20.67 ± 0.9 mPa·s (333.15 K). For the same compound, the mass density by setting is: (293.15 K) 1192.85 ± 2.7 kg/m3; (303.15 K) 1186.37 ± 2.7 kg/m3; (313.15 K) 1179.92 ± 2.7 kg/m3; (323.15 K) 1173.52 ± 2.6 kg/m3; (333.15 K) 1167.18 ± 2.6 kg/m3.

The values above are taken from the NIST ThermoML archive (doi:10.1016/j.fluid.2013.12.020).
